Data on six compounds can be found in patent US11485728B2, “Small molecules for the treatment of autoimmune diseases and cancer” (Athos Therapeutics, Inc., priority 2020, dated 2022).

Data set [1] has as its system CaCo-2 intestinal epithelial cells. Kind of data set: Transepithelial resistance (TEER) of CaCo-2 cells exposed to TNFα and IFNγ. The data set is classed as cell-based. Particulars: for epithelial barrier resistance: TNFα 10 ng/ml, IFNγ 100 ng/ml, compounds 1 μM, 48 hrs of treatment. Here is the method:
The intestinal epithelial barrier plays a central role in the pathophysiology of multiple chronic inflammatory and autoimmune diseases. Intestinal epithelial cells provide a physical barrier that interacts with immune cells and protects internal cavities from mucosal bacterial and antigen intrusion. Intestinal inflammation during IBD is associated with disruption of this barrier and cytokines like TNFα play important roles.
At confluence TEER is measured and TNFα along with compounds are added as described above. Compound-induced TEER is determined after correction with measurement prior to treatment.

For data set [2], the system named is C57BL/6 mice with DSS colitis. Nature of the data set: DSS colitis in C57BL/6 mice. For Clinical Score: key: −: indicates no statistically significant effect in the variable measured when compared with the control group; +: indicates a statistically significant difference in the variable measured when compared with the control group; ++: indicates measurements that include multiple variables in the calculation of their differences when compared with the control group, and represents the presence of significant changes across all variable measurements. The data set is classed as in vivo. Particulars: for Clinical Score: includes weight, bleeding, diarrhea, rectal prolapse. Here is the method: Dextran sodium sulfate (DSS) was added to the water 24 hrs after compound administration and weight was measured daily.
C57BL/6 mice (20-22 grams) were fed ad lib and assigned to 4 different groups (n=8/group). […] A control group received vehicle alone. After 24 hrs, mice were weighed and DSS was added to their drinking water. Mice were then treated with the test compounds and weighed daily and the DSS water was replenished every 72 hrs for 5 days, at which point, it was replaced by regular drinking water. Mice were sacrificed on day twelve and clinical scored was assessed. Intestinal tissue for and blood were also collected. Tissues were either flash frozen and kept in −80° C. for RNA and protein isolation or placed in 10% formalin solution for future histological analysis. Blood was spun at 5K rpm for 5 min and serum was collected and kept at −20° C. for multiplex cytokine analysis.
DSS colitis mouse model: C57BL/6 mice (20-22 grains) are fed ad lib and assigned to different groups (n=8/group). […] A control group receives vehicle alone. After 24 h, mice are weighed and DSS is added to their drinking water. Mice are then treated with the test compounds and weighed daily and the DSS water is replenished every 72 liars for 5 days, at which point, it is replaced by regular drinking water. Mice are sacrificed on day twelve and clinical scored was assessed. Intestinal tissue for and blood are also collected. Tissues are either flash frozen and kept in −80° C. for RNA and protein isolation or placed in 10% formalin solution for future histological analysis.

Data set [3] in a line: pH solubility. The following applies: for solubility at 24 h: aqueous solution, thermodynamic from solid, read-out: Solubility Concentration. Type of data set: physicochemical. Here is the method:
Saturated solutions of selected compounds were prepared at pH 1, 4, 6.5, and 7.4. The pH conditions selected are within the extremes of the normal physiological pH of the human gastrointestinal tract. Solubility testing of drug under different pH conditions was carried out by adding an excess amount of drug to each pH condition initiating with 1 mg/mL and then confirmed saturation by visual observation of undissolved material. The saturated solutions are continuously shaking at 6,000 rpm for 24 hours at room temperature. The saturated solutions were filtered through Millipore 0.22 um PVDF hydrophilic filters and subjected to HPLC to evaluate the solubility concentration of the test compound. Filtered saturated solutions were diluted with acetonitrile:water (50:50) within the calibration standard curve. A calibration curve of test compound contained […] standards at concentrations 0.25, 0.5, 1.0, 5.0, 10, 25, 50 and 100 μg/mL were prepared in acetonitrile:water (50:50).
Compounds were measured in filtered saturated solution using an Agilent 1260 Infinity II Lab LC Series HPLC (1260 quat pump, 1260 vial autosampler, ICC column oven, 1260 DAD WR detector). The chromatographic separation was achieved by Phenomenex Synergi Polar RP column (150×4.6 mm, 4 μm, 80 Å). The mobile phase was gradient (A: water with 0.1% trifluoroacetic acid, B: acetonitrile with 0.1% trifluoroacetic acid; A/B (99:1) from 0 minute; to A/B (1:99) from 0 to 10 minutes; A/B (1:99) from 10 to 12 minutes; to A/B (99:1) from 12 to 12.1 minutes; A/B (99:1) from 12.1 to 13 minutes) pumped at a flow rate of 1 mL/min. The detection of the eluent was monitored at 254 nm. The column oven was set at 35° C. Injection volume was 10 μL, unless otherwise specified. Data acquisition and peak integrations were obtained by OpenLAB CDS Version 2.4 (Agilent) operating with Windows (Microsoft).
Solubility is the ability of a drug to dissolve in an aqueous solution under different pH conditions. It is defined as the amount of substance that passes into solution to achieve a saturated solution at a constant temperature and pressure. The purpose of this study was to determine the solubility of selected compounds under different pH conditions and determine whether an oral solution is feasible or a suspension would be better to support the drug formulation process for pre-clinical studies. The pH conditions selected were within the extremes of the normal physiological pH of the human gastrointestinal tract, such as pH 1, pH 4, pH 6.5, and pH 7.4.

A short description of data set [4]: Formulation visual stability (DMA/PG/PEG 300/water). Type of data set: physicochemical. The following applies: 25° C., 10-11 mg/mL in DMA/PG/PEG 300/Water. On the procedure: All formulations were conducted with FDA approved excipients and with high purity material such as USP grade quality. Formulation stability of test articles are performed using HPLC purity method described within analytical section. This formula may be used for oral administration of the compounds described herein; […]. Since these compounds have high solubility in lower pH as described in the solubility study section, the intervenous delivery is performed with 100% phosphate buffer solution of pH 6.5 allowing up to 7 mg/mL concentration. The formulated test articles can be store at 4° C. Prior to dosing, it should be warmed and vortexed for about 1 min to make a homogenous solution. If needed, filter through 0.2 μM syringe filter to maintain clean and sterile.

Data set [5] relates to Naïve human CD4 T cells. Nature of the data set: Differentiation of naïve human CD4 T cells into FoxP3+ Tregs (flow cytometry). The data set is classed as cell-based. The following applies: 500 nM, 5 days. Here is the method:
Naïve human CD4 T cells were cultured in DMEM supplemented with 10% heat-inactivated FBS, 2 mM glutamine, 100 U/ml penicillin, 100 μg/ml streptomycin and 25 mM Hepes. Human CD4 T cells were treated with anti-CD3 and anti-CD28 (100 ng/ml) together with small molecule compounds (500 nM) for 5 days. FoxP3 and CD4 positive cells were stained and imaged in a BD LSRII flow cytometer. The gated area represents the percentage CD4^highFoxP3^high immune cell population. Furthermore, the same small molecule compounds were evaluated for their effects on IL17 protein levels in human CD4 T cells by using an ELISA assay (R&D systems, cat no. D1700).

Where [6] appears, read: CaCo-2, TNFα along with compounds.
Where [7] appears, read: 25 mg/kg PO daily, sacrificed day twelve.
The mark [8] stands for this setting: 50 mg/kg daily oral, d12 after DSS induction, vs vehicle.
[9] abbreviates: daily oral gavage, d12, vs vehicle.

Where two headings read alike, the source gives them in different places.

On to `COc1cc2c(NC3CCOCC3)nc(N3CCCC3)nc2cc1OCCCN1CCCC1` [Compound 164, 6-methoxy-2-(pyrrolidin-1-yl)-7-(3-(pyrrolidin-1-yl)propoxy)-N-(tetrahydro-2H-pyran-4-yl)quinazolin-4-amine], for which the TEER entry in data set [1] (setting [6]) is listed as “++”. The “DSS Efficacy” value in data set [2] (25 mg/kg PO daily, day twelve) was “++”.

On to `COc1cc2c(NCC3CCN(C)CC3)nc(N3CCC(F)(F)CC3)nc2cc1OCCCN1CCCC1` [Compound 5, 2-(4,4-difluoropiperidin-1-yl)-6-methoxy-N-((1-methylpiperidin-4-yl)methyl)-7-(3-(pyrrolidin-1-yl)propoxy)quinazolin-4-amine], for which, in data set [2] (25 mg/kg PO daily), the “effect on the effects of DSS colitis (in words)” value (“effect on the effects” for short) was “alleviation of the effects of DSS colitis”. For the same compound, in data set [2] (25 mg/kg PO daily, day twelve), the “Colon Length” value is listed as “+” and the “Clinical Score” value was “+”. The “DSS Efficacy” value in data set [2] (setting [7]) is “+”.

On to `COc1cc2c(NC3CCS(=O)(=O)CC3)nc(N3CCC(F)(F)CC3)nc2cc1OCCCN1CCCC1` [Compound 1, 4-((2-(4,4-difluoropiperidin-1-yl)-6-methoxy-7-(3-(pyrrolidin-1-yl)propoxy)quinazolin-4-yl)amino)tetrahydro-2H-thiopyran 1,1-dioxide], for which the epithelial barrier resistance entry in data set [1] is “recovered epithelial barrier resistance levels back to those of untreated cells”. The “transepithelial resistance after combined TNFα and IFNγ exposure” value in data set [1] (TNFα 20 ng/ml, IFNγ 200 ng/ml, 24 hrs of treatment) was “ameliorated the disruptive effects”. Also, the TEER result in data set [1] (vs control group) is given as “+”. Moreover, the solubility at 24 h came out at 11600 µg/mL in data set [3] (pH 4, aqueous buffer); 6050 µg/mL in data set [3] (pH 6.5, aqueous buffer); 424 µg/mL in data set [3] (pH 7.4, aqueous buffer). For the same compound, the “solubility higher than the solubility of compound 201” value in data set [3] (pH 7.4) was found to be 40 fold. For the same compound, in data set [2] (25 mg/kg PO daily), the “effect on the effects” value was “alleviation of the effects of DSS colitis”. The “Colon Length” value in data set [2] (25 mg/kg PO daily, day twelve) is given as “+”; in data set [2] (setting [8]), “increased”. The “Clinical Score” value in data set [2] (25 mg/kg PO daily, day twelve) is “+”. Further, the “DSS Efficacy” value in data set [2] (setting [7]) is reported as “+”. The DSS-induced weight loss result in data set [2] (50 mg/kg daily oral) is given as “resulted in increased weight”. Also, the “protection against colitis induced weight loss” value in data set [2] (daily oral gavage, after d11) is on record as “significant protection against colitis induced weight loss”. The colitis-induced weight loss entry in data set [2] (setting [9]) was “significantly prevented”. The colon length shortening result in data set [2] (setting [9]) is listed as “significantly prevented”. In addition, the Appearance result in data set [4] (30 min), in data set [4] (1 h), in data set [4] (5 h), in data set [4] (24 h) and in data set [4] (7 d) was “clear” throughout.

`COc1cc2c(NC3CCN(C(C)C)CC3)nc(N3CCC(F)(F)CC3)nc2cc1OCCCN1CCCC1` [Compound 400, 2-(4,4-difluoropiperidin-1-yl)-N-(1-isopropylpiperidin-4-yl)-6-methoxy-7-(3-(pyrrolidin-1-yl)propoxy)quinazolin-4-amine, reference compound]: the epithelial barrier resistance entry in data set [1] was “increased intestinal permeability”. In addition, the TEER result in data set [1] (vs control group) was “−”. Also, the “Tregs (%)” value in data set [5] (anti-CD3 and anti-CD28 100 ng/ml, CD4highFoxP3high population) is on record as 4.7%. The “increase of the number of Tregs over untreated” value in data set [5] (baseline 3.2%) is 1.46 fold. Moreover, the solubility at 24 h in data set [3] (pH 1, simulated gastric fluid) is 22800 µg/mL; in data set [3] (pH 4, aqueous buffer), 13200 µg/mL; in data set [3] (pH 6.5, aqueous buffer), 7510 µg/mL; in data set [3] (pH 7.4, aqueous buffer), 11 µg/mL. The “effect on the effects” value in data set [2] (25 mg/kg PO daily) is “no effect”. For the same compound, the “Colon Length” value in data set [2] (25 mg/kg PO daily, day twelve) is reported as “−”; in data set [2] (setting [8]) it was “not”. The “Clinical Score” value in data set [2] (25 mg/kg PO daily, day twelve) was “−”. Further, the “DSS Efficacy” value in data set [2] (setting [7]) is “−”. Further, the DSS-induced weight loss entry in data set [2] (50 mg/kg daily oral) is given as “failed to increase DSS-induced weight loss”. Moreover, the Appearance result in data set [4] (30 min), in data set [4] (1 h), in data set [4] (5 h), in data set [4] (24 h) and in data set [4] (7 d) was “clear” throughout.

Regarding `COc1cc2c(NC3COC3)nc(N3CCC(F)(F)CC3)nc2cc1OCCCN1CCCC1` [Compound 11, 2-(4,4-difluoropiperidin-1-yl)-6-methoxy-N-(oxetan-3-yl)-7-(3-(pyrrolidin-1-yl)propoxy)quinazolin-4-amine], the solubility at 24 h in data set [3] (pH 4, aqueous buffer) is 4450 µg/mL; in data set [3] (pH 6.5, aqueous buffer) it was 3180 µg/mL; in data set [3] (pH 7.4, aqueous buffer) it was 245 µg/mL.

On to `COc1cc2c(Nc3ccncc3)nc(N3CCC(F)(F)CC3)nc2cc1OCCCN1CCCC1` [Compound 7, 2-(4,4-difluoropiperidin-1-yl)-6-methoxy-N-(pyridin-4-yl)-7-(3-(pyrrolidin-1-yl)propoxy)quinazolin-4-amine], for which, in data set [1] (setting [6]), the TEER result is listed as “−”. The epithelial barrier resistance result in data set [1] was “recovered epithelial barrier resistance levels back to those of untreated cells”. For the same compound, the “DSS Efficacy” value in data set [2] (25 mg/kg PO daily, day twelve) is reported as “−”.
